The subject of one test is IL-1β. In words: IL-1β expression in LPS stimulated PBMCs (Meso Scale). Format: cell-based, human. The settings on record: for inhibition at 10 µM: compound concentration 10 μM; for inhibition at 1 µM: compound concentration 1 μM. As for the experimental part: FIGS. 5 and 9A are graphs showing IL-1-beta expression in LPS stimulated peripheral blood mononuclear cells (PBMCs), PBMCs were plated in 96-well plates and pretreated with compound (Compound 1-9 individually) for 1 h, and then induced with 100 ng/mL LPS for 18-24 h. Cytokines in the media were measured according to MesoScale protocol. Negative control wells were treated with DMSO. Compound activity is measured as a percentage of LPS-induced activity. “Rev” is lenalidomide.
(§1) Frozen primary blood mononuclear cells (PBMCs) and frozen CD14+ mobilized peripheral blood monocytes were purchased from AllCells. Cells were quick thawed, and washed 1-time with RPMI-1640/10% FBS/1% Penicillin/1% Streptomycin and plated in 96-well plates at 200,000 cells per well. Cells were pretreated with DMSO only, Compound 5013 (lenolidamide) or the indicated compound for 1 h and then induced with 100 ng/mL lipopolysaccharide (LPS) for 18-24 h. The supernatant was analyzed for IL-1 beta, IL-6, and TNF-α using Meso Scale assay according to manufacturer's protocol. The negative control wells were treated with DMSO.
(§2) PBMCs: AllCells PB003F, Normal Peripheral Blood MNC.
(§3) Media: RPMI 1640/10% FBS/1% Pen-Strep.

The subject of a further test is IL-6. In words: IL-6 expression in LPS stimulated PBMCs (Meso Scale). Type of test: cell-based, human. The note with it: for inhibition at 10 µM: compound concentration 10 μM; for inhibition at 1 µM: compound concentration 1 μM. As for the experimental part: FIGS. 6 and 9B are graphs showing IL-6 expression in LPS stimulated peripheral blood mononuclear cells (PBMCs). PBMCs were plated in 96-well plates and pretreated with compound (Compound 1-9 individually) for 1 h, and then induced with 100 ng/mL LPS for 18-24 h. Cytokines were measured according to MesoScale protocol. Negative control wells were treated with DMSO. Compound activity was measured as a percentage of LPS-induced activity. “Rev” is lenalidomide.
as §1, §2, §3

The subject of a further test is TNF-α. The test is described as follows: TNF-α expression in LPS stimulated PBMCs (Meso Scale). Type of test: cell-based, human. The settings on record: for inhibition at 10 µM: compound concentration 10 μM; for inhibition at 1 µM: compound concentration 1 μM. As to the method: FIGS. 7 and 9C are graphs showing TNF-a expression in LPS stimulated peripheral blood mononuclear cells (PBMCs). PBMCs were plated in 96-well plates and pretreated with compound (Compound 1-9 individually) for 1 h, and then induced with 100 ng/mL LPS for 18-24 h. Cytokines in the media were measured according to MesoScale protocol. The negative control wells were treated with DMSO. Compound activity is measured as a percentage of LPS-induced activity. “Rev” is lenalidomide.
as §1, §2, §3

A further test concerns the target T1, GSPT1 (Homo sapiens, UniProt P15170).
T1 construct: Whole cell extracts were prepared using RIPA buffer according to manufacturer's protocol (Pierce); endogenous in cells
The test is described as follows: GSPT1 protein levels by Western Blot analysis. Format: cell-based. The settings on record: DMSO = 100.00. As to the method:
Cells were lysed using RIPA Buffer (Pierce) and a Western Blot analysis was performed using anti-GSPT1 and anti-β-actin antibodies. FIG. 11B is a graph showing the expression levels of GSPT1 protein in Molm-13 (AML) cells. Protein expression levels were measured using the LiCor Odyssey instrumentation and methods.
Western Blot Protocol: Cell lines were grown in RPMI 1640 supplemented with streptomycin, penicillin and 10% fetal bovine serum.
Cells were cultured at approximately 10^6 cells per mL and incubated in DMSO or each of the indicated compounds for 6-8 h. Whole cell extracts were prepared using RIPA buffer according to manufacturer's protocol (Pierce). Briefly, 2×10^6 cells were washed once in PBS, the cell pellets were resuspended in RIPA buffer and allowed to incubate for 15 minutes on ice. Cells debris was removed by centrifugation and the cleared whole cell lysates were transferred to new tubes for further analysis.
For Western blot analysis, whole cell protein extracts were separated on 4-12% SDS-polyacrylamide gels, transferred to nitrocellulose, and probed with the indicated primary antibodies. Membranes were subsequently washed and probed with the appropriate IRDye secondary antibodies (LI-COR). The signal was detected using the Odyssey Imaging System (LI-COR).
GSPT1: Rabbit anti-GSPT1 was obtained from Abcam, ab126090 (Cambridge, Eng.)

A further test deals with H1048 cells. In words: H1048 cell viability (CellTiter-Glo). Format: cell-based. The note with it: Homo sapiens; for viability at 1 µM / viability at 10 µM: NCI-H1048, 72 h, H1048, 3 days, DMSO = 100.00; for viability at 1 µM: 1 μM compound concentration; for viability at 10 µM: 10 μM compound concentration. As to the method: (§4) FIG. 10A is a graph showing antiproliferative activity in H1048 (SCLC) cells. FIG. 10B is a graph showing antiproliferative activity in Molm-13 (AML) cells. In FIGS. 10A and 10B, the cells were incubated for 72 hrs with Compound 9 at the indicated concentrations or DMSO. Compound activity was measured based on the signal from remaining viable cells.
(§5) Molm-13 cells were cultivated in RPMI-1640 (10% FBS/1% pen-strep) and were plated in white walled 96-well plates at 20,000 cells/well. H1048 cells were cultured in DMEM:F12 media supplemented with 5% fetal bovine serum, insulin, transferrin, sodium selenite, hydrocortisone, β-estradiol, penicillin and streptomycin, and were plated in white walled 96-well plates at 20,000 cells/well. MDA-MB-231 cells were cultured in DMEM media supplemented with 10% fetal bovine serum, penicillin and streptomycin, and were plated in white walled 96-well plates at 10,000 cells/well. Cells were treated with compound or DMSO (0.1%, control) and the cultures were incubated for 3 days at 37° C. and 5% CO2. Following the incubation period, 100 μL of CellTiterGlow (CTG) reagent (CellTiter-Glo® Luminescent Cell Viability Assay, Promega (Madison, Wis.)) was added to each well. Following a 10 min incubation with shaking, luminescence was measured using a Victor Wallac Luminometer.

The subject of the next test is Molm-13 cells. In words: Molm-13 cell viability (CellTiter-Glo). Type of test: cell-based. The note with it: Homo sapiens; for cytotoxicity at 10 µM: compound concentration 10 μM; for cytotoxicity at 1 µM: compound concentration 1 μM. As to the method: as §4, §5
On the technique in general: Cellular ATP, detected with luciferase, serves as a proxy for viable cell number.

The next test relates to MDA-MB-231 cells. In words: MDA-MB-231 cell viability (CellTiter-Glo). The note with it: Homo sapiens, 72 h, 3 days, DMSO = 100.00; for viability at 1 µM: 1 μM compound concentration; for viability at 10 µM: 10 μM compound concentration. Format: cell-based. As for the experimental part:
as §5

The mark [1] stands for this setting: Homo sapiens, PBMC, compound concentration 0.1 μM.
Where [2] appears, read: Homo sapiens, PBMC, LPS-stimulated PBMCs.
Where [3] appears, read: MOLM-13, read-out: % Inhibition (MOLM-13 Cell Viability).

Each structure is given as a SMILES string. pIC50: −log10 of the molar value.

T1 sequence (P15170 whole entry): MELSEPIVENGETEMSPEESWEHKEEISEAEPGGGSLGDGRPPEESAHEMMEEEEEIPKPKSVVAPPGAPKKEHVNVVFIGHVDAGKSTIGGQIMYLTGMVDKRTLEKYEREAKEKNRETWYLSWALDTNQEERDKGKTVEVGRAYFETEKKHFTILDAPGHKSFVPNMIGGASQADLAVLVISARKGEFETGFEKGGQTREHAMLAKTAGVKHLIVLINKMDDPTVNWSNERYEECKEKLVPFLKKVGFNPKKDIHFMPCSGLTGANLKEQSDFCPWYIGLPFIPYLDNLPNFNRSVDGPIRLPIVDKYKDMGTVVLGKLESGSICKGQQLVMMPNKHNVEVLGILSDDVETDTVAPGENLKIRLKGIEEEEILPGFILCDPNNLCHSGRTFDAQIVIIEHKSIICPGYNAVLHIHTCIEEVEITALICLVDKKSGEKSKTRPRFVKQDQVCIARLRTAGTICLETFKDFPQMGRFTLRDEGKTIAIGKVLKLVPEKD
T1 sequence (Q96SW2 whole entry, further chain): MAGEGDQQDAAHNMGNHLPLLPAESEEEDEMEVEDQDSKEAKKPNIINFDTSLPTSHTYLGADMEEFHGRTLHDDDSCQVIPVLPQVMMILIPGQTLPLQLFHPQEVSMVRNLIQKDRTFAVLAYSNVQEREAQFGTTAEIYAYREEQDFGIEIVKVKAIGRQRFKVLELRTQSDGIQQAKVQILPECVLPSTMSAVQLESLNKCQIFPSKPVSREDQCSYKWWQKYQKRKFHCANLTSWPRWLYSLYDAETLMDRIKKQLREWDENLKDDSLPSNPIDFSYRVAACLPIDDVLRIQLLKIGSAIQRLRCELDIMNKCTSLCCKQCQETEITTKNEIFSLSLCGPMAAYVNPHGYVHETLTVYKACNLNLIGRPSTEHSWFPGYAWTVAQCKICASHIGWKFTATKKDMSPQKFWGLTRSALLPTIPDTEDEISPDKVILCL
T1 sequence (Q16531 whole entry partner): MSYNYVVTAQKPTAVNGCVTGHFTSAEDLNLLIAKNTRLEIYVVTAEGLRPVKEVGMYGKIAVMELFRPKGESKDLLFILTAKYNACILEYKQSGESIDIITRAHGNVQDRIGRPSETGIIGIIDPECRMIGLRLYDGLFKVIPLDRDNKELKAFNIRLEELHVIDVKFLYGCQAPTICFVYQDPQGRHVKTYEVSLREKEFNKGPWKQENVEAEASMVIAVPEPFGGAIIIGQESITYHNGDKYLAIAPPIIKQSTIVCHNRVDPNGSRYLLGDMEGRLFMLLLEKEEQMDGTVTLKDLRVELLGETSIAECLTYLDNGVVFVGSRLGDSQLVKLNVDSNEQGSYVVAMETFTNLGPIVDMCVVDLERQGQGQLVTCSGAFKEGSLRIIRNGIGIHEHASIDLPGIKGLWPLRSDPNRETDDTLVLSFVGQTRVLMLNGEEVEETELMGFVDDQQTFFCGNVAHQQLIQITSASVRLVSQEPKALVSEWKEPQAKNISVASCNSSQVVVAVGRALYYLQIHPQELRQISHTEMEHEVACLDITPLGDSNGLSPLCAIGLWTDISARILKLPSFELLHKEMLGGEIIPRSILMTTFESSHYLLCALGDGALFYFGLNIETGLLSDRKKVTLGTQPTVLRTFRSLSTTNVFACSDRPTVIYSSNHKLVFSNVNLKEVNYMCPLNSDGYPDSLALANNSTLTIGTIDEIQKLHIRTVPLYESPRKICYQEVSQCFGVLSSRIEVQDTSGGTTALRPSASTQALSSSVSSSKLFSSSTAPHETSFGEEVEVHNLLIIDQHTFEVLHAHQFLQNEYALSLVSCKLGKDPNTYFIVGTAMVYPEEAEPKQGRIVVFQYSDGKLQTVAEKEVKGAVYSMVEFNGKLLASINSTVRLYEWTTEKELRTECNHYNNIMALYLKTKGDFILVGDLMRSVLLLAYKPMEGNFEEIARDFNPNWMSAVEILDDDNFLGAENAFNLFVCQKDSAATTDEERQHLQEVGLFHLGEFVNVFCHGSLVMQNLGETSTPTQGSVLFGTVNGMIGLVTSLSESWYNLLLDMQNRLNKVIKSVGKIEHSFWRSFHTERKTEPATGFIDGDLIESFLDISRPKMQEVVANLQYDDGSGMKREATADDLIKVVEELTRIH

On to `Cc1ccc(NC(=O)NCc2scc3c2CN(C2CCC(=O)NC2=O)C3=O)cc1Cl` (stereo not drawn) [Compound 9, 1-(3-chloro-4-methylphenyl)-3-((5-(2,6-dioxopiperidin-3-yl)-4-oxo-5,6-dihydro-4H-thieno[3,4-c]pyrrol-1-yl)methyl)urea], for which the inhibition at 0.1 µM amounted to 98% in the test with IL-1β (setting [1]); 100% in the test on IL-6 (Homo sapiens, PBMC, compound concentration 0.1 μM, LPS-stimulated PBMCs); 98% with TNF-α (setting [1]). Moreover, the remaining activity at 0.1 µM on GSPT1 (100 nM compound concentration) worked out at 6.77%. On GSPT1 (1 μM compound concentration), the remaining activity at 1 µM stood at 5.31%. The viability at 1 µM in the test with H1048 cells came to 7.5%; in the test with MDA-MB-231 cells, 19.6%. The viability at 10 µM was 7.93% with H1048 cells and 19.1% in the test on MDA-MB-231 cells. Also, the pIC50 in the test on H1048 cells (NCI-H1048, H1048 cells, 72 hrs (FIG. 10A)) was 9.30; with Molm-13 cells (Molm-13 cells, 72 hrs (FIG. 10B), read-out: approximate IC50 cell viability), approximately 8.52. Also, the cytotoxicity at 0.003 µM with Molm-13 cells (MOLM-13, compound concentration 0.003 μM, read-out: % Inhibition (MOLM-13 Cell Viability)) was found to be 50%.

On to `O=C1CCC(N2Cc3c(csc3C(F)(F)F)C2=O)C(=O)N1` (stereo not drawn) [Compound 29, 3-(4-Oxo-1-(trifluoromethyl)-4H-thieno[3,4-c]pyrrol-5(6H)-yl)piperidine-2,6-dione], for which the inhibition at 10 µM amounted to 57% in the test on IL-1β (Homo sapiens, PBMC); 19% with IL-6 (setting [2]); 60% with TNF-α (Homo sapiens, PBMC). Moreover, the cytotoxicity at 10 µM with Molm-13 cells (setting [3]) is 10%.

As for `Cc1ccc(NC(=O)Nc2scc3c2CN(C2CCC(=O)NC2=O)C3=O)cc1Cl` (stereo not drawn) [Compound 50, 1-(3-Chloro-4-methylphenyl)-3-(5-(2,6-dioxopiperidin-3-yl)-4-oxo-5,6-dihydro-4H-thieno[3,4-c]pyrrol-1-yl)urea], the inhibition at 1 µM in the test on IL-1β (Homo sapiens, PBMC) is 14%; in the test on IL-6 (setting [2]) it was 0%; with TNF-α (Homo sapiens, PBMC) it was 1%. Besides, the viability at 1 µM in the test with H1048 cells amounted to 15.8%; in the test with MDA-MB-231 cells, 108%. The results for the viability at 10 µM in the test with H1048 cells and in the test with MDA-MB-231 cells were 13.4% and 95.7%, respectively. The cytotoxicity at 1 µM in the test with Molm-13 cells (setting [3]) was determined as 41%.

As for `Cc1ccc(CNC(=O)NCc2csc3c2CN([C@H]2CCCC(=O)NC2=O)C3=O)cc1Cl` [Compound 51, (S)-1-(3-Chloro-4-methylbenzyl)-3-((5-(2,7-dioxoazepan-3-yl)-6-oxo-5,6-dihydro-4H-thieno[2,3-c]pyrrol-3-yl)methyl)urea], the inhibition at 1 µM is 38% in the test with IL-1β (Homo sapiens, PBMC); 5% with IL-6 (setting [2]); 49% with TNF-α (Homo sapiens, PBMC). The values for the viability at 1 µM in the test on H1048 cells and in the test with MDA-MB-231 cells were 94.9% and 108%, respectively. For the same molecule, the results for the viability at 10 µM with H1048 cells and with MDA-MB-231 cells were 24.1% and 103%, respectively. The cytotoxicity at 1 µM in the test on Molm-13 cells (setting [3]) came to 0%.

As for `Cc1ccc(CC(=O)Nc2scc3c2CN(C2CCC(=O)NC2=O)C3=O)cc1Cl` (stereo not drawn) [Compound 56, 2-(3-Chloro-4-methylphenyl)-N-(5-(2,6-dioxopiperidin-3-yl)-4-oxo-5,6-dihydro-4H-thieno[3,4-c]pyrrol-1-yl)acetamide], the inhibition at 1 µM with IL-1β (Homo sapiens, PBMC) amounted to 55%; in the test on IL-6 (setting [2]), 12%; in the test on TNF-α (Homo sapiens, PBMC) it was 59%. Besides, the results for the viability at 1 µM with H1048 cells and with MDA-MB-231 cells were 29.1% and 108%, respectively. The viability at 10 µM in the test with H1048 cells was 26.3%; in the test on MDA-MB-231 cells it was 101%. Moreover, the cytotoxicity at 0.1 µM with Molm-13 cells (MOLM-13, compound concentration 0.1 μM, read-out: % Inhibition (MOLM-13 Cell Viability)) was found to be 10%.

As for `Cc1cnc(Nc2ccc(OCCCNC(=O)NCc3scc4c3CN(C3CCC(=O)NC3=O)C4=O)cc2)nc1Nc1cccc(S(=O)(=O)NC(C)(C)C)c1` (stereo not drawn) [Compound 62, N-(tert-Butyl)-3-((2-((4-(3-(3-((5-(2,6-dioxopiperidin-3-yl)-4-oxo-5,6-dihydro-4H-thieno[3,4-c]pyrrol-1-yl)methyl)ureido)propoxy)phenyl)amino)-5-methylpyrimidin-4-yl)amino)benzenesulfonamide], the inhibition at 10 µM with IL-1β (Homo sapiens, PBMC) turned out to be 51%; with IL-6 (setting [2]), 15%; in the test with TNF-α (Homo sapiens, PBMC), 63%. Further, the cytotoxicity at 1 µM in the test with Molm-13 cells (setting [3]) came to 71%.

Consider `Cc1sc2c(c1C)C(c1ccc(Cl)cc1)=N[C@@H](CC(=O)NCCCCNCC(=O)NCc1scc3c1CN([C@H]1CCCC(=O)NC1=O)C3=O)c1nnc(C)n1-2` [Compound 63, 2-((S)-4-(4-Chlorophenyl)-2,3,9-trimethyl-6H-thieno[3,2-f][1,2,4]triazolo[4,3-a][1,4]diazepin-6-yl)-N-(4-((2-(((5-((S)-2,7-dioxoazepan-3-yl)-4-oxo-5,6-dihydro-4H-thieno[3,4-c]pyrrol-1-yl)methyl)amino)-2-oxoethyl)amino)butyl)acetamide], for which the inhibition at 10 µM was determined as 27% in the test with IL-1β (Homo sapiens, PBMC); 1% with IL-6 (setting [2]); 34% in the test with TNF-α (Homo sapiens, PBMC).

With `O=C1CCC(N2Cc3c(C4CCCC4)csc3C2=O)C(=O)N1` (stereo not drawn) [Compound 64, 3-(3-Cyclopentyl-6-oxo-4H-thieno[2,3-c]pyrrol-5(6H)-yl)piperidine-2,6-dione], the inhibition at 10 µM with IL-1β (Homo sapiens, PBMC) amounted to 22%; in the test on IL-6 (setting [2]) it was 8%; in the test with TNF-α (Homo sapiens, PBMC), 45%. For the same molecule, the cytotoxicity at 10 µM in the test with Molm-13 cells (setting [3]) was 13%.

Consider `Nc1cccc2c1CN(C1CCC(=O)NC1=O)C2=O` (stereo not drawn) [lenalidomide, reference compound], for which the “reduction of expression of IL-1-b” value in the test on IL-1β (equimolar concentration (FIG. 5)) is given as “over 60%”. The “reduction of IL-6 levels” value with IL-6 (LPS-stimulated PBMCs (FIG. 6)) is “below 60%”. In the test on TNF-α (equimolar concentration (FIG. 7)), the “reduction of expression of TNF-α” value was “below 60%”.

What is called inhibition is the drop in the measured response relative to a control, in per cent. Low readings indicate a response near the control, high ones a response far below the control. A word on the remaining activity: it is the activity still measured, relative to the control. By viability is commonly meant a read-out of living cells in per cent, often relative to untreated cells. What is called pIC50 is the negative decadic logarithm of the IC50, by convention in mol/L.

The values above are taken from patent US10040804B2, “Compounds targeting proteins, compositions, methods, and uses thereof” (BioTheryX, Inc., priority 2016, dated 2018).
